Assay results published in patent US20140220694A1, “METHODS AND COMPOSITIONS RELATING TO PLATELET SENSITIVITY” (ELECTROPHORETICS LIMITED, priority 2011, published 2014).

Experiments:
Type in all cases: in vivo, human
[1] = tested on: platelet protein biomarkers of aspirin resistance; test: Aspirin resistance biomarker SRM method (six biomarkers); details: two aspirin resistant and 10 aspirin sensitive platelet digests
Excerpt: The six markers are Integrin beta 3 (total) and Integrin beta 3 isoform A, heat shock protein A5, pyruvate kinase isozyme M1/M2, RAB GDP1 alpha & prostaglandin G/H synthase. For each marker two or three proteotypic tryptic peptides were selected and heavy isotope standard synthetic peptides were purchased from a commercial supplier (Thermo Scientific, Belgium). Platelet preparations from Example 3 were also used in the SRM method for simultaneous measurement of six biomarkers of aspirin resistance. Prior to analysis using Platelet Aspirin Resistance assay version 2.0 samples were resuspended in a solution containing 5 fmol/μL of each of the heavy AQUA peptides (See table 2) in the method and 200 μg/mL glucagon. Prior to SRM samples were resolved by RP-chromatography over a 9 minute ACN gradient (5-30%) in 0.2% formic acid at 100 μl/min. The Platelet Aspirin Resistance assay version 2.0 contains 96 SRM transitions, covering 17 peptides from 5 proteins. The SRM cycle time was 2 seconds with retention time windows used to maximise the scan time given to each SRM transition. Including washes and time to equalibrate the column, the total run time of the method was 30 minutes.

[2] = tested on: ITGB3 (Glycoprotein IIIa); test: Western blotting of platelet lysates with N- and C-terminal specific antibodies; details: irrespective of platelet responsiveness status
Protocol: Platelet lysates from subjects (10 μg each) were mixed with equal volumes of Laemmli sample buffer (2×) (125 mM Tris-base, 4% SDS, 20% glycerol, 4% β-mercaptoethanol, 0.04% bromophenol blue), and subsequently loaded onto a 12.5% SDS-PAGE gel. Proteins were transferred onto PVDF membranes, and detected using specific antibodies as follows. Paired blots were incubated with Anti-GP111a C-terminal specific (Santa Cruz Biotechnology, Item code sc-6626, C-20) or anti GP111a N-terminal specific (Santa Cruz Biotechnology, Item code sc-6627, N-20) respectively. Bands were scanned and densitometric analysis performed using Image J system (a Java based image processing program developed by the National Institutes of Health, Bethesda, USA).

[3] = tested on: integrin beta 3 (ITGB3); test: SRM analysis of TMT-labelled platelet peptides, post:pre aspirin ratios
Protocol: Peptides identified in the discovery study from candidate proteins were taken forward if they were proteotypic and had characteristics suitable for robust SRM quantitation i.e. fully hydrolysed, contained no known modifications (either in vivo or experimental) and had suitable MS/MS fragments for Q3 selection. Up to six peptides per protein were selected for targeted quantitation (Table 2). The m/z of Q1 and Q3 transitions for selected peptides were calculated either from data-dependent sequencing in the discovery study or from in silico analysis using Pinpoint (ThermoFisher). The theoretical optimal collision energies for each transitions were also calculated using the discovery data and Pinpoint (ThermoFisher). Peptide dection and quantitation was based on time-alignment of multiple transitions per peptide (up to six transitions per peptide). Only peptides with consistant detection of multiple time-aligned transitions in all subject samples were used in the final quantitation. The final SRM method was then applied to the quantitative analysis of the experimental sample set. TMT-labeled subject samples (70/90 μg, check) were reduced, alkylated, digested in-solution and purified by RP and SCX chromatography. […] The SRM peak area for each pre-aspirin sample was measured relative to the SRM peak area for each post-aspirin sample. […]

[4] = tested on: Integrin beta 3; test: Integrin beta 3 isotyping SRM assay, post:pre aspirin ratio
Protocol: 50 ml of whole blood was drawn from subjects into trisodium citrate (final concentration 0.32%) from the antecubital vein using a Butterfly® 19-guage siliconised needle. Blood was centrifuged (20 min, 200×g, room temperature (RT)) to obtain platelet rich plasma (PRP) that was acidified with the addition of 0.3M citric acid (target pH 6.5). Further centrifugation (15 min, 1200×g, RT) produced the platelet pellet that was immediately re-suspended in citrate wash buffer (refer to Appendix 1 for composition) and prostaglandin E1 (Sigma) was added to a final concentration of 10 nM. Removal of residual red cells and monocytes was performed by further centrifugation (3 min, 200×g, RT) and decanting of the platelet rich supernatant. Final centrifugation (15 min, 1200×g, RT) produced the washed platelet pellet that was stored at −80° C. The washed platelet pellet was re-suspended in lysis buffer (NaCl 150 mM, Tris-base 32 mM, NaF 50 mM, Na orthovanadate 1 mM to which 1 ml ethylenediaminetetraacetic acid (EDTA; 0.1M stock solution) and 1 ml Triton-X 100 was added prior to adjusting to pH 7.6 with conc. HCL and volume made up to 100 ml) containing protease inhibitor cocktail (Sigma Aldrich, UK) and placed on ice for 30 min, before agitation on ice for a further 5 min. The sample was centrifuged (5 min, 9000×g, 4° C.) to remove cellular debris. The supernatant was stored at −80° C. Aspirin sensitivity was assessed in individuals prescribed aspirin for secondary prevention using a combination of functional and biochemical assays. […] The amount of endogenous (light) peptide is calculated based on the peak area ratio relative to the 100 fmol spiked heavy peptide. For individuals where samples were available pre and post treatment with Aspirin, a post to pre ratio was calculated to assess any changes in peptide levels. […] For the healthy normal cohort, pre and post aspirin samples were not available and the basal pg measured peptides level per μg total protein were reported.

[5] = tested on: platelets; test: TMTsixplex GeLC-MS/MS discovery proteomics of platelet extracts pre and post aspirin treatment; details: for peptide/protein expression after aspirin treatment: 300 mg daily, 1 month oral
Protocol: To address the shortage of sensitive, robust and reliable markers of aspirin resistance the inventors undertook a comparative proteomic study of platelet extracts derived from samples known to be resistant and sensitive following 1 month's oral administration of therapeutic doses of aspirin (300 mg daily).
Briefly, platelets were purified from blood drawn from individuals with functionally documented aspirin resistance (n=2) or sensitivity (n=4). In each case matched samples were drawn pre- and post-aspirin treatment. Proteins were extracted, reduced and alkylated prior to labelling with a sixplex set of isobaric mass tags (TMTsixplex, Proteome Sciences plc; Refer to FIG. 1b). After labelling sets of six samples were pooled according to a randomised schedule and subjected to 1-dimensional SDS-PAGE. Each gel lane was cut into […] and each band subjected to in gel digestion using trypsin prior to analysis by LC-MS/MS to allow protein identification. Relative quantitation of each protein was achieved by comparing the ion intensity and area under the curve for each of the six TMT Reporter Ions and proteins showing a difference in levels between aspirin resistant and sensitive platelets were thus identified.
From 94 healthy subjects, 2 subjects were determined as aspirin resistance using measurements of platelet aggregommetry (agonist's arachidonic acid and ADP) and 11-dehydroTXB2 in urine. To be defined as truly aspirin resistant subjects must have an abnormal response with both measures. Subjects took 300 mg aspirin daily for 1 month.
Preparation of Platelet Samples 60 ml whole blood was obtained from subjects from the antecubital vein using a Butterfly®19-gauge needle, and collected into NaCl trisodium citrate (final concentration 0.38%). […]
Prior to analysis by GeLC-MS/MS 30 μg of each sample within a TMTsixplex experiment were mixed 1:1:1:1:1:1. The combined sample was analysed by GeLC-MS/MS with the entire gel lane being excised into 15 sections. […]

With `CC(=O)Oc1ccccc1C(=O)O` [aspirin, acetylsalicyclic acid] the “aspirin-dependant expression of integrin beta 3 isoform A, heat shock protein A5, RAB GDP1 alpha, prostaglandin G/H synthase” value [1] was “consistent changes”, the “aspirin-dependant expression of pyruvate kinase isozyme M1/M2” value [1] was “more variable” and the “intensity of staining of integrin beta 3 band, N-terminus antibody” value [2] was “consistent pre- and post-aspirin treatment”. The “ITGB3 peptide specific for isoform beta 3A, post:pre aspirin” value ([3]; aspirin resistant compared to aspirin sensitive subjects) was “consistently showed significant changes”, the “ITGB3 peptides common to all three isoforms, protein levels after treatment” value ([3]; six subjects pre and post aspirin) was “no difference in protein levels” and the “integrin beta 3 isoform A level after aspirin” value ([4]; majority of 10 aspirin sensitive patients) was “remained level or decreased”. For the same compound, the “total integrin beta 3 levels after aspirin” value ([4]; majority of aspirin sensitive patients) was “remained relatively unchanged”, the “integrin beta 3 isoform A level after aspirin” value ([4]; two aspirin resistant patients, 1 month treatment) was “expected increase” and the “levels of vinculin, myosin and talin” value ([5]; housekeeping proteins used for normalisation) was “not influenced by aspirin treatment”. For the same compound, the “peptide/protein expression after aspirin treatment” value ([5]; platelets from aspirin-resistant subjects) was “mostly down-regulation of peptide/protein expression” and the “peptide/protein expression after aspirin treatment” value ([5]; platelets from aspirin-sensitive individuals) was “remained broadly similar or increased”.
